Source: publication PMC6170201 (Xenobiotica; the fate of foreign compounds in biological …, 2010)

Tests used:
LS180 cells [1] = assay: Acetaminophen glucuronidation in intact LS180 cells; conditions: for effect on acetaminophen glucuronidation: LS180 cells; for inhibition of acetaminophen glucuronidation: initial screen, at the highest concentration tested, intact LS180 cells; for IC50: Homo sapiens, LS180, 24 h, read-out: IC50, acetaminophen glucuronidation; for fold difference in IC50, HLM versus intact LS180 cells: acetaminophen glucuronidation, more potent in LS180 cells
PKC β1 = conditions: reported value, no reference given; cited from earlier work
PKC α = conditions: reported value, no reference given; cited from earlier work
LS180 cells [2] = conditions: 250 nM, substrate not clear, ref Basu et al. 2008; cited from earlier work
PKC = conditions: 600 μM, human astrocytoma cells; ref Kurita et al. 2007; cited from earlier work
UGT1A10 [3] = conditions: UGT1A10-transfected COS-1 cells; ref Basu et al. 2008; cited from earlier work
UGT1A6 [4] = molecular target: T1, UGT1A6 (Homo sapiens, UniProt P19224); assay: Acetaminophen glucuronidation, treated intact UGT1A6-infected Sf9 cells
T1 sequence (P19224 27-532): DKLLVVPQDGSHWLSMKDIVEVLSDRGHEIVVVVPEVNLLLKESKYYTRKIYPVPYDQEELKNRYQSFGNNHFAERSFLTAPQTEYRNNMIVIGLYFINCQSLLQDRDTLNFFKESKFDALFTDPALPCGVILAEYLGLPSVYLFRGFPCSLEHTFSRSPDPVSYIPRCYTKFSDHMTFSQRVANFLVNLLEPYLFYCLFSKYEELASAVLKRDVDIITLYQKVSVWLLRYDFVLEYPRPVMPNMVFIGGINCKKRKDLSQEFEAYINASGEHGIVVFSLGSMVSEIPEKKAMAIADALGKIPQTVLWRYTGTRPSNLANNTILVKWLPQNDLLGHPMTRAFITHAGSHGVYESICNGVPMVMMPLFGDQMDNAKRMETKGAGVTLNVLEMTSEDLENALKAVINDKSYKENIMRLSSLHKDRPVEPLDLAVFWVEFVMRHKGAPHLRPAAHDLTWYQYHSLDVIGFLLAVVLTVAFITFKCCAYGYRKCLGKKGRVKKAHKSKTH

UGT1A6 [5] = molecular target: T1, UGT1A6; assay: Serotonin glucuronidation, UGT1A6-infected Sf9 treated cell lysates
UGT1A7 = UGT1A7 expressed in COS-1 cells; ref Basu et al. 2003; Basu et al. 2005; cited from earlier work
UGT1A1 = UGT1A1 expressed in COS-1 cells; ref Basu et al. 2003; Basu et al. 2005; cited from earlier work
UGT1A6 [6] = molecular target: T1, UGT1A6; assay: Serotonin glucuronidation by pooled human liver microsomes
LS180 cells [7] = conditions: ref Basu et al. 2003; Gutmann et al. 2006; cited from earlier work
UGT1A6 [8] = molecular target: T1, UGT1A6; assay: Serotonin glucuronidation, treated intact UGT1A6-infected Sf9 cells
UGT1A10 [9] = conditions: UGT1A10 expressed in COS-1 cells; ref Basu et al. 2003; Basu et al. 2005; cited from earlier work
LS180 cell lysates = conditions: read-out: IC50, acetaminophen glucuronidation; (untreated) LS180 cell lysates
human liver microsomes = assay: Acetaminophen glucuronidation by pooled human liver microsomes; format: biochemical; conditions: read-out: IC50, acetaminophen glucuronidation; HLM, 10 mM acetaminophen
HCT116 = conditions: HCT116, 24 hr, concentrations up to 10μM; ref Tillman et al. 2003; cited from earlier work
[10] = test system: SW480 colon adenocarcinoma cells; conditions: 50 μM, 12 hr treatment, ref Masur et al. 2001; cited from earlier work
HCT8 = conditions: HCT8, 24 hr, concentrations up to 10μM; ref Tillman et al. 2003; cited from earlier work
HT29 = conditions: HT29, 24 hr, concentrations up to 10μM; ref Tillman et al. 2003; cited from earlier work
[11] = concentrations more than 20 times reported selective PKC IC50 values

SMILES: O=C1NC(=O)c2cc(Nc3ccc(F)cc3)c(Nc3ccc(F)cc3)cc21 [CGP-53353]
- effect on acetaminophen glucuronidation (LS180 cells [1]; [11]): did not show significant inhibitory activity
- inhibition of acetaminophen glucuronidation (LS180 cells [1]): ≤ 50%

SMILES: CN(C)C[C@@H]1CCn2cc(c3ccccc32)C2=C(C(=O)NC2=O)c2cn(c3ccccc23)CCO1 [LY-333531, (S)-13-[(dimethylamino)methyl]-10,11,14,15-tetrahydro-4,9:16, 21-dimetheno-1H, 13H-dibenzo[e,k]pyrrolo[3,4-h][1,4,13]oxadiazacyclohexadecene-1,3(2H)-d ione]
- effect on acetaminophen glucuronidation (LS180 cells [1]; [11]): did not show significant inhibitory activity
- inhibition of acetaminophen glucuronidation (LS180 cells [1]): ≤ 50%

SMILES: O=C1NC(=O)C(c2cn(CCCn3ccnc3)c3ccccc23)=C1Nc1ccccc1 [PKC-β inhibitor]
- effect on acetaminophen glucuronidation (LS180 cells [1]; [11]): did not show significant inhibitory activity
- inhibition of acetaminophen glucuronidation (LS180 cells [1]): ≤ 50%

SMILES: CN(C)C[C@H]1CCn2c(c(C3=C(c4cn(C)c5ccccc45)C(=O)NC3=O)c3ccccc32)C1 [Ro 32–0432]
- effect on acetaminophen glucuronidation (LS180 cells [1]; [11]): did not show significant inhibitory activity
- inhibition of acetaminophen glucuronidation (LS180 cells [1]): ≤ 50%
- inhibition of glucuronidation activity (LS180 cells [2]): 30%

SMILES: CCCC(CCC)C(=O)O [Valproic acid, valproic acid]
- effect on acetaminophen glucuronidation (LS180 cells [1]; 80 μM and 350 μM): not inhibitory
- inhibition of acetaminophen glucuronidation (LS180 cells [1]): ≤ 50%
- inhibition of PKC (PKC): 40%

SMILES: COc1c(C[C@@H](C)OC(=O)Oc2ccc(O)cc2)c2c3c(C[C@@H](C)OC(=O)c4ccccc4)c(OC)c(=O)c4c(O)cc(OC)c(c5c(OC)cc(O)c(c1=O)c52)c43 [calphostin-C]
- effect on phosphorylation of UGT1A10 (UGT1A10 [3]): dose-dependent decrease
- IC50 (UGT1A6 [4]): 830 ± 100 nM
- fold higher IC50 in insect cells versus LS180 cells (UGT1A6 [4]; acetaminophen glucuronidation): about 4 fold
- IC50 (UGT1A6 [5]): > 2 µM
- effect on glucuronidation of capsaicin (UGT1A7): inhibits
- effect on glucuronidation of anthraflavic acid (UGT1A1): inhibits
- effect on glucuronidation of bilirubin (UGT1A1): inhibits
- IC50 (UGT1A6 [6]): > 2 µM
- concentration up to which not toxic in LS180 cells (LS180 cells [7]): up to 1 μM
- IC50 (UGT1A6 [8]): 500 ± 100 nM
- IC50 (LS180 cells [1]): 0.14 ± 0.03 µM
- fold difference in IC50, HLM versus intact LS180 cells (LS180 cells [1]): over 3.5 fold
- effect on glucuronidation of eugenol (UGT1A10 [9]): inhibits

SMILES: COc1cc(/C=C/C(=O)CC(=O)/C=C/c2ccc(O)c(OC)c2)ccc1O [curcumin, Curcumin]
- IC50 (UGT1A6 [4]): 58900 ± 4500 nM
- IC50 (UGT1A6 [5]): 31.6 ± 2.4 µM
- IC50 (LS180 cell lysates): 60.9 ± 12.2 µM
- IC50 (UGT1A6 [6]): 73.9 ± 1 µM
- IC50 (UGT1A6 [8]): 64900 ± 7500 nM
- IC50 (LS180 cells [1]): 12.1 ± 0.4 µM

SMILES: Cc1cc(O)c2c(=O)c3c(O)cc(O)c4c5c(O)cc(O)c6c(=O)c7c(O)cc(C)c8c1c2c(c34)c(c78)c65 [hypericin]
- IC50 (UGT1A6 [4]): 550 ± 40 nM
- fold lower IC50 in Sf9 cells compared with LS180 cells (UGT1A6 [4]; acetaminophen glucuronidation): 10 fold
- IC50 (UGT1A6 [5]): > 30 µM
- concentration up to which not toxic in LS180 cells (LS180 cells [7]): up to 10 μM
- IC50 (human liver microsomes): > 30 µM
- IC50 (UGT1A6 [8]): 590 ± 50 nM
- IC50 (LS180 cells [1]): 7.1 ± 0.6 µM
- fold difference in IC50, HLM versus intact LS180 cells (LS180 cells [1]): over 3.5 fold

SMILES: CC(=O)c1c(O)c(C)c(O)c(Cc2c(O)c3c(c(C(=O)/C=C/c4ccccc4)c2O)OC(C)(C)C=C3)c1O [rottlerin]
- IC50 (UGT1A6 [4]): > 40000 nM
- IC50 (UGT1A6 [5]): > 40 µM
- induction of apoptosis (HCT116): did not induce apoptosis
- effect on viability of cells [10]: no effect
- induction of apoptosis (HCT8): did not induce apoptosis
- IC50 (UGT1A6 [6]): > 40 µM
- IC50 (human liver microsomes): > 40 µM
- IC50 (UGT1A6 [8]): > 40000 nM
- IC50 (LS180 cells [1]): 9 ± 1.2 µM
- fold difference in IC50, HLM versus intact LS180 cells (LS180 cells [1]): over 3.5 fold
- induction of apoptosis (HT29): did not induce apoptosis
